# Reference: publication PMC12298827, “Subchronic Toxicities of Four Per- and Polyfluoroalkyl Substances (PFASs) by Oral Exposure in Sprague–Dawley Rats” (Toxics, 2025)
# Tested on: male and female Sprague–Dawley rats
# Assay: 90-day subchronic oral gavage toxicity study
# Format: in vivo, rat
# Conditions: female
# Procedure: Subchronic (90-day) studies were performed in accordance with current U.S. EPA’s Toxic Substances Control Act Good Laboratory Practice (GLP) Standards, with the following two general exceptions to the GLP guidelines: Analysis of the dose formulations was conducted according to RTI-approved Standard Operating Procedures, and corn oil (the vehicle) was not characterized (certificate of analysis from the vendor is available in the appendices to the final reports). Male and female Sprague–Dawley rats (five dose levels plus a control, n = 10/sex/dose group, corn oil vehicle dose volume of 3 mL/kg; oral gavage) were used in these studies, and the rats were euthanized on SD 91. The dose levels for PFHI were 0, 12.5, 25, 50, 100, and 200 mg/kg-day. The dose levels for MHFPK were 0, 18.8, 37.5, 75, 150, and 300 mg/kg-day. The dose levels for PFNAC were 0, 0.1, 0.3, 1.0, 3.0, and 10 mg/kg-day for male rats and 0, 0.3, 1.0, 3.0, 10, and 30 mg/kg-day for female rats. For CTFPA, the dose levels were 0, 1.9, 3.8. 7.5, 15, and 30 mg/kg-day for male rats and 0, 6.3, 12.5, 25, 50, and 100 mg/kg-day for female rats. For each PFAS, three batches of dosing solution were prepared. The time between the batch preparation of the dosing solutions ranged between 29 and 39 days. Blood samples were collected from all the rats at termination for serum chemistry, hematology, coagulation, and the analysis of the parent PFAS chemical in the plasma. In vivo data collection and further detail on the endpoints examined postmortem are described below.
# The rats were observed twice daily for morbidity and mortality throughout the study period. At least once prior to randomization to test groups and weekly thereafter, the rats were physically examined, and bodyweights were obtained. Feed consumption was quantified weekly starting on SD 1.
# Neurotoxicity was evaluated using the functional observational battery (FOB) and measuring locomotor activity (LMA) 2–4 h post dosing on SDs 78–80 and 80–84, respectively. For both the 14- and 90-day studies, an ophthalmologic examination was conducted prior to randomization and near the end of the study, using indirect ophthalmoscopy and slit–lamp biomicroscopy (as needed) after the administration of a mydriatic solution.
# Hematology, biochemistry, and coagulation endpoints were measured at the termination of the study. A Siemens Advia 2120i hematology analyzer (Siemens Healthineers, Erlangen, Germany) was used to measure (or calculate) the parameters related to the complete blood count, leukocyte differential count, and reticulocyte count. The hematology parameters are listed and described in Table 2. The prothrombin time […] and activated partial thromboplastin time (APTT) were measured using an Instrumentation Laboratory (Bedford, MA, USA) ACL Elite Pro coagulation analyzer (laser–nephelometric centrifugal method).
# At necropsy, the rats were visually examined for external abnormalities and organ weights (absolute and relative to the BW and brain weight), which were recorded (paired organs weighed together). The tissues were preserved in 10% neutral buffered formalin (NBF), except for the ocular tissues, testes, and epididymides, which were preserved in modified Davidson’s fixative and later transferred to 10% NBF. Bone marrow smears were prepared from the femurs, and the slides were air-dried, fixed in methanol, stained, and stored at room temperature for possible future evaluation. The preserved tissues were embedded in paraffin, sectioned, stained with hematoxylin and eosin, and examined by a board-certified veterinary pathologist.
# Statistical analysis was performed using Provantis™ Version 10 or greater (Instem LSS, Limited; Stone, Staffordshire, UK). Differences among the treatment groups compared to the control were evaluated using one-way analysis of variance (ANOVA) if the underlying assumptions of a normal distribution (Shapiro–Wilk test) and the homogeneity of the variance (Levene’s test) were satisfied. […]
compound,measurement,setting,value
"C=CC(=O)OCC(F)(F)C(F)(F)C(F)(F)C(F)(F)C(F)(F)C(F)(F)C(F)(F)C(F)F [PFNAC, 1H,1H,9H-Perfluorononyl acrylate]",Kidney Weight,1.0 mg/kg-day,1.73 g
same,Kidney/Body Weight,1.0 mg/kg-day,0.59%
same,Kidney/Brain Weight,1.0 mg/kg-day,90.7%
same,Liver Weight,1.0 mg/kg-day,7.89 g
same,Liver/Body Weight,1.0 mg/kg-day,2.67%
same,Liver/Brain Weight,1.0 mg/kg-day,412%
same,MPV,1.0 mg/kg-day,7.59 ± 0.74 fL
same,PT,1.0 mg/kg-day,14.03 s
same,RBC,1.0 mg/kg-day,7.303±0.562 M/µL
same,Total BW change,1.0 mg/kg-day,94.80 g
same,Total Food Consumed,1.0 mg/kg-day,1444 g
same,% BW Gain,3.0 mg/kg-day,47.09%
same,"% Diff, % BW Gain",3.0 mg/kg-day,-3.49%
same,"% Diff, Total BW change",3.0 mg/kg-day,-2.02%
same,"% Diff, Total Food Consumed",3.0 mg/kg-day,7.48%
same,A/G,3.0 mg/kg-day,1.15±0.06 ratio
same,ABEOS,3.0 mg/kg-day,0.083±0.028 K/µL
same,ABNEUT,3.0 mg/kg-day,1.419±0.734 K/µL
same,ABRETi,3.0 mg/kg-day,176.48±43.69 10^9/L
same,ALB,3.0 mg/kg-day,4.56 ± 0.18 g/dL
same,ALPi,3.0 mg/kg-day,55.4±20.6 U/L
same,APTT,3.0 mg/kg-day,20.34 s
same,BUN,3.0 mg/kg-day,16.4 ± 1.3 mg/dL
same,CHOL,3.0 mg/kg-day,92.3 ± 16.3 mg/dL
same,GLOB,3.0 mg/kg-day,3.97 ± 0.13 g/dL
same,GLUC,3.0 mg/kg-day,104.4 ± 8.0 mg/dL
same,HCT,3.0 mg/kg-day,41.82±2.32%
same,HGB,3.0 mg/kg-day,13.37 ± 0.68 g/dL
same,Kidney Weight,3.0 mg/kg-day,1.83 g
same,Kidney/Body Weight,3.0 mg/kg-day,0.61%
same,Kidney/Brain Weight,3.0 mg/kg-day,91.1%
same,Liver Weight,3.0 mg/kg-day,7.96 g
same,Liver/Body Weight,3.0 mg/kg-day,2.67%
same,Liver/Brain Weight,3.0 mg/kg-day,396%
same,MPV,3.0 mg/kg-day,7.77 ± 0.42 fL
same,PT,3.0 mg/kg-day,14.15 s
same,RBC,3.0 mg/kg-day,7.262±0.327 M/µL
same,Total BW change,3.0 mg/kg-day,99.10 g
same,Total Food Consumed,3.0 mg/kg-day,1512 g
same,% BW Gain,10 mg/kg-day,46.00%
same,"% Diff, % BW Gain",10 mg/kg-day,-5.72%
same,"% Diff, Total BW change",10 mg/kg-day,-5.60%
same,"% Diff, Total Food Consumed",10 mg/kg-day,5.11%
same,A/G,10 mg/kg-day,1.17±0.07 ratio
same,ABEOS,10 mg/kg-day,0.081±0.022 K/µL
same,ABNEUT,10 mg/kg-day,1.562±1.084 K/µL
same,ABRETi,10 mg/kg-day,160.88±34.97 10^9/L
same,ALB,10 mg/kg-day,4.66 ± 0.39 g/dL
same,ALPi,10 mg/kg-day,50.5±7.3 U/L
same,APTT,10 mg/kg-day,22.50 s
same,BUN,10 mg/kg-day,19.1 ± 3.5 mg/dL
same,CHOL,10 mg/kg-day,77.7 ± 14.0 mg/dL
same,GLOB,10 mg/kg-day,3.98 ± 0.29 g/dL
same,GLUC,10 mg/kg-day,108.8 ± 12.0 mg/dL
same,HCT,10 mg/kg-day,41.08±2.03%
same,HGB,10 mg/kg-day,13.12 ± 0.63 g/dL
same,Kidney Weight,10 mg/kg-day,1.81 g
same,Kidney/Body Weight,10 mg/kg-day,0.62%
same,Kidney/Brain Weight,10 mg/kg-day,89.98%
same,Liver Weight,10 mg/kg-day,8.42 g
same,Liver/Body Weight,10 mg/kg-day,2.88%
same,Liver/Brain Weight,10 mg/kg-day,419%
same,MPV,10 mg/kg-day,7.80 ± 0.60 fL
same,PT,10 mg/kg-day,14.11 s
same,RBC,10 mg/kg-day,7.241±0.358 M/µL
same,Total BW change,10 mg/kg-day,95.48 g
same,Total Food Consumed,10 mg/kg-day,1479 g
same,% BW Gain,30 mg/kg-day,52.06%
same,"% Diff, % BW Gain",30 mg/kg-day,6.69%
same,"% Diff, Total BW change",30 mg/kg-day,5.59%
same,"% Diff, Total Food Consumed",30 mg/kg-day,8.40%
same,ABEOS,30 mg/kg-day,0.082±0.026 K/µL
same,ABNEUT,30 mg/kg-day,1.118±0.358 K/µL
same,ABRETi,30 mg/kg-day,164.87±31.05 10^9/L
same,APTT,30 mg/kg-day,22.09 s
same,HCT,30 mg/kg-day,40.37±2.37%
same,HGB,30 mg/kg-day,13.04 ± 0.72 g/dL
same,Kidney Weight,30 mg/kg-day,1.99 g
same,Kidney/Body Weight,30 mg/kg-day,0.65%
same,Kidney/Brain Weight,30 mg/kg-day,101%
same,Liver Weight,30 mg/kg-day,9.83 g
